Counter-ions that a name gives are not always drawn.
These molecules were tested on isolated rat aortic strips (assay: Contraction of rat aortic strips: inhibition of Ca++-induced contracture (calcium channel blocking activity)). Settings: 15 minute exposure at 3×10^-7 M.
Assay type: cell-based
Protocol: The calcium channel blocking activity of compounds of formula I was determined by measuring the effect of compounds of formula I on isolated rat aortic strips.
Aortas were excised from rats, placed in Krebs-Henseleit solution, modified so as to be calcium free, with a depolarized level of potassium (45 mM), and 0.02 mM EDTA. The aorta was then helically cut into a strip about 2 mm wide. This strip was then divided into four equal segments about 15 mm in length, which were hung in isolated tissue chambers, attached to the appropriate tranducers and subjected to 500 mg basal tension. After a period of stabilization under these conditions, calcium was introduced into the bath and the tissues contracted in a concentration dependent manner.
When no calcium is available in the bathing media, and the potential dependent calcium channels are opened by the high potassium level, contractility is dependent on the level of calcium introduced into the bath. By adding increments of calcium into the bath, a reproducible concentration-dependent contracture can be obtained. Treatment with a calcium channel blocker, such as diltiazem, or a compound of the invention results in an inhibition of this contractile response.
Each number in the table below was derived by first adding calcium alone to tissue and measuring contracture, and then adding calcium to tissue that had been exposed to 3×10^-7 M of the compound to be tested and measuring contracture. The number for untreated controls was derived by measuring contracture for two runs where calcium alone was added.
A compound tested was placed in the bath at 3×10^-7 M for 15 minutes prior to, and during the acquisition of the concentration-dependent curve to calcium for that particular compound. The inhibition in contractile response at 2 mMCa++ was measured as a per cent inhibition as compared to the control. The effects on the 2 mM Ca++ contracture are as follows:
That is, compound A inhibited almost three quarters of the contracture observed for the control at 2 mM Ca++. As used above, compounds A, B, C, and D are as follows: […]
For COc1ccc([C@@H]2Sc3ccccc3N(CCN(C)C)C(=O)[C@@H]2OC(C)=O)cc1 [Diltiazem, reference compound], the “responsiveness to 2 mM Ca++” value was “marked reduction in responsiveness”.

Same assay, conditions: Rattus norvegicus, read-out: % Inhibition (contractile response at 2 mM Ca++ as compared to the control), heading: % Inhibition, 3×10^-7 M, 15 minutes prior to and during the calcium curve, depolarizing K+ 45 mM, diltiazem n = 10, A-D n = 1
Work on COc1ccc([C@H]2SC(c3ccccc3)=C(C)N(CCN(C)C)C(=O)[C@H]2OC(C)=O)cc1 (racemic) [Compound A, cis-rac.-6-(acetyloxy)-6,7-dihydro-7-(4-methoxyphenyl)-3-methyl-4-[2-(dimethylamino)ethyl]-2-phenyl-1,4-thiazepin-5(4H)-one (E)-2-butenedioate] yielded an inhibition at 0.3 µM of 73.4%. In the case of COc1ccc([C@@H]2SC(c3ccccc3)=C(C)N(CCN(C)C)C(=O)[C@H]2OC(C)=O)cc1 (relative stereo) [D, trans-rac.-6-(acetyloxy)6,7-dihydro-7-(4-methoxyphenyl)-3-methyl-4-[2-dimethylamino)ethyl]-2-phenyl-1,4-thiazepin-5(4H)-one hydrochloride], the inhibition at 0.3 µM was 13.4%. COc1ccc([C@H]2SC(c3ccccc3)=C(C)N(CCN(C)C)C(=O)[C@H]2OC(C)=O)cc1 [C, (-)-cis-6-(acetyloxy)-6,7-dihydro-7-(4-methoxyphenyl)-3-methyl-4-[2-dimethylamino)ethyl]-2-phenyl-1,4-thiazepin-5(4H)-one [R-(R*,R*)]-2,3-dihydroxybutanedioic acid sesquihydrate] was tested, and the inhibition at 0.3 µM was 3.8%. In the case of COc1ccc([C@@H]2SC(c3ccccc3)=C(C)N(CCN(C)C)C(=O)[C@@H]2OC(C)=O)cc1 [Compound B, (+)-cis-6-(acetyloxy)-6,7-dihydro-7-(4-methoxyphenyl)-3-methyl-4-[2-dimethylamino)ethyl]-2-phenyl-1,4-thiazepin-5(4H)-one [S-(R*,R*)]-2,3-dihydroxybutanedioic acid hydrate], the inhibition at 0.3 µM was 88.3%. COc1ccc([C@@H]2Sc3ccccc3N(CCN(C)C)C(=O)[C@@H]2OC(C)=O)cc1 [Diltiazem, reference compound] showed an inhibition at 0.3 µM of 71.1%.
